In PubChem BioAssay (NCI) one finds TGI data, which are given here for seven molecules.

Some test systems named below: MDA-N; SK-MEL-28 melanoma; HOP-62 NSCLC; A549 NSCLC; COLO 205 colon; MALME-3M melanoma; SK-MEL-2 melanoma; HOP-92 NSCLC; HCT-116 colon; TK-10 renal; SF-268 CNS; BT-549 breast; SN12C renal; ACHN renal; SK-MEL-5 melanoma; MDA-MB-231 breast; EKVX NSCLC; RPMI-8226 leukemia.
Experiment in all cases: NCI-60 cell line screen, 48 h

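Results reflect a 48-hour exposure of cells in 96-well plates to compound at five concentrations. At the TGI there is no net growth.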

As for `CCOC(=O)c1nc2ccc(C(F)(F)F)cc2nc1Nc1ccc(F)cc1`, the TGI was above 100 µM in the assay on MDA-N; above 100 µM in the assay with SK-MEL-28 melanoma; above 100 µM in the assay with HOP-62 NSCLC; 82.9 µM in the assay with A549 NSCLC; above 100 µM in the assay with COLO 205 colon; above 100 µM with MALME-3M melanoma. Moreover, the TGI in the assay with SK-MEL-2 melanoma is above 100 µM; in the assay on HOP-92 NSCLC it was 98.9 µM; with HCT-116 colon it was above 100 µM; in the assay with TK-10 renal, above 100 µM; in the assay with SF-268 CNS, above 100 µM; with BT-549 breast, above 100 µM. In addition, the TGI with SN12C renal and with ACHN renal was above 100 µM each time.

On to `COc1cccc(C=C2N=C(c3ccccc3)N(n3c(-c4ccccc4)nc4ccccc4c3=O)C2=O)c1`, for which the TGI in the assay on MDA-N, in the assay on SK-MEL-5 melanoma, in the assay with SK-MEL-28 melanoma, in the assay on HOP-62 NSCLC, in the assay with A549 NSCLC and with COLO 205 colon was above 100 µM throughout. Besides, the TGI with MALME-3M melanoma, with HCT-116 colon, in the assay on MDA-MB-231 breast, in the assay with TK-10 renal, in the assay with EKVX NSCLC and in the assay on SF-268 CNS was above 100 µM each time. Moreover, the TGI in the assay on BT-549 breast, in the assay with SN12C renal, in the assay on ACHN renal and in the assay with RPMI-8226 leukemia was above 100 µM in each case.

Regarding `CCOC(=O)c1nc2ccccc2nc1Oc1ccc(C#N)cc1`, the TGI in the assay with MDA-N, with SK-MEL-5 melanoma, in the assay with SK-MEL-28 melanoma, in the assay on HOP-62 NSCLC, with A549 NSCLC and in the assay with COLO 205 colon was above 100 µM throughout. The TGI in the assay with MALME-3M melanoma, with SK-MEL-2 melanoma, with HOP-92 NSCLC, with HCT-116 colon, in the assay with TK-10 renal and with EKVX NSCLC was above 100 µM throughout. Also, the TGI with SF-268 CNS, in the assay on BT-549 breast, in the assay on SN12C renal, in the assay with ACHN renal and in the assay on RPMI-8226 leukemia was above 100 µM each time.

For `N/C(=N\N=C\c1cc(I)cc(I)c1O)NO`, the TGI in the assay on MDA-N, in the assay with SK-MEL-5 melanoma, in the assay on SK-MEL-28 melanoma, with HOP-62 NSCLC, in the assay with A549 NSCLC and with COLO 205 colon was above 100 µM throughout. For the same molecule, the TGI was 56.7 µM in the assay with MALME-3M melanoma; above 100 µM in the assay with SK-MEL-2 melanoma; 76.2 µM in the assay on HCT-116 colon; above 100 µM in the assay on MDA-MB-231 breast; above 100 µM in the assay with TK-10 renal; above 100 µM with EKVX NSCLC. The TGI with SF-268 CNS is above 100 µM; in the assay on BT-549 breast, above 100 µM; with SN12C renal it was above 100 µM; with ACHN renal it was 74.1 µM.

As for `CN(C)/C=N\c1nncc2[nH]cnc12`, the TGI with MDA-N, in the assay with SK-MEL-5 melanoma, in the assay with SK-MEL-28 melanoma, in the assay with HOP-62 NSCLC, in the assay with A549 NSCLC and with COLO 205 colon was above 100 µM each time. For the same molecule, the TGI in the assay with MALME-3M melanoma, in the assay with SK-MEL-2 melanoma, in the assay with HOP-92 NSCLC, in the assay with HCT-116 colon, in the assay with TK-10 renal and in the assay on EKVX NSCLC was above 100 µM each time. The TGI with BT-549 breast, in the assay on SN12C renal, in the assay with ACHN renal and with RPMI-8226 leukemia was above 100 µM each time.

Turning to `CSc1nn(C)cc2nc(C)nc1-2`, the TGI with MDA-N, in the assay on SK-MEL-5 melanoma, with SK-MEL-28 melanoma, in the assay with HOP-62 NSCLC, with A549 NSCLC and in the assay with COLO 205 colon was above 100 µM each time. Moreover, the TGI in the assay on SK-MEL-2 melanoma, with HCT-116 colon, with MDA-MB-231 breast, with TK-10 renal, in the assay on EKVX NSCLC and in the assay on SF-268 CNS was above 100 µM each time. For the same molecule, the TGI with BT-549 breast, in the assay with SN12C renal, with ACHN renal and in the assay with RPMI-8226 leukemia was above 100 µM throughout.

On to `COc1cc(COC(=O)N2CC=CC2C(=O)O)c([N+](=O)[O-])cc1OC` (stereo unspecified), for which the TGI in the assay with MDA-N, with SK-MEL-5 melanoma, in the assay with SK-MEL-28 melanoma, in the assay with HOP-62 NSCLC, with A549 NSCLC and with COLO 205 colon was above 100 µM each time. The TGI with MALME-3M melanoma, in the assay on HOP-92 NSCLC, in the assay with HCT-116 colon, in the assay with TK-10 renal, in the assay on EKVX NSCLC and in the assay with SF-268 CNS was above 100 µM in each case. Besides, the TGI in the assay with BT-549 breast, with SN12C renal, in the assay with ACHN renal and with RPMI-8226 leukemia was above 100 µM throughout.
